# Measurements as given in the supplement of paper PMC10307832.
# Columns and labels:
# Test in all cases: relative viability (nuclei count vs DMSO), 5 days (fraction); higher = more cells survive
# [1] = compound: C1COCCN1C2=NC(=NC3=C2OC4=C3C=CC=N4)C5=CC(=CC=C5)NC(=O)C6=CN=C(C=C6)N + COc1cccc2cc(-c3nc([C@H]4CC[C@H](C(=O)O)CC4)n4ncnc(N)c34)[nH]c12 [OSI-027] (partner 0.5 µM)
# Procedure, shortened: (§1)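 The day after seeding in 1536-well plates, lung cancer cell lines were treated by pin tool with a single drug, or with a fixed anchor-drug dose together with five library-drug doses (not always all listed) in √10 steps. After 5 days, a combined fix-and-stain solution (final 0.05% Triton X-100, 1% formaldehyde, 1 ug/ml Hoechst) was added. Nuclei counted on 4× images gave relative viability as treated counts over vehicle counts, reported as the median of duplicate plates.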
# Entinostat + OSI-027 = compound: Nc1ccccc1NC(=O)c1ccc(CNC(=O)OCc2cccnc2)cc1 [Entinostat] + COc1cccc2cc(-c3nc([C@H]4CC[C@H](C(=O)O)CC4)n4ncnc(N)c34)[nH]c12 [OSI-027] (partner 0.5 µM)
# Procedure, shortened: as §1
# Entinostat + Phenformin = compound: Nc1ccccc1NC(=O)c1ccc(CNC(=O)OCc2cccnc2)cc1 [Entinostat] + N=C(N)NC(=N)NCCc1ccccc1 [Phenformin] (partner 250 µM)
# Procedure, shortened: as §1
# SGI-1776 + AZD7762 = compound: CN1CCC(CNc2ccc3ncc(-c4cccc(OC(F)(F)F)c4)n3n2)CC1 [SGI-1776] + NC(=O)Nc1cc(-c2cccc(F)c2)sc1C(=O)N[C@H]1CCCNC1 [AZD7762] (partner 0.2 µM)
# Procedure, shortened: as §1
Cell Line,relative viability ([1]; first compound 0.02 µM),relative viability ([1]; first compound 0.06325 µM),relative viability ([1]; first compound 0.2 µM),relative viability ([1]; first compound 0.6325 µM),relative viability ([1]; first compound 2 µM),relative viability (Entinostat + OSI-027; first compound 0.02 µM),relative viability (Entinostat + OSI-027; first compound 0.06325 µM),relative viability (Entinostat + OSI-027; first compound 0.2 µM),relative viability (Entinostat + OSI-027; first compound 0.6325 µM),relative viability (Entinostat + OSI-027; first compound 2 µM),relative viability (Entinostat + Phenformin; first compound 0.02 µM),relative viability (Entinostat + Phenformin; first compound 0.06325 µM),relative viability (Entinostat + Phenformin; first compound 0.2 µM),relative viability (Entinostat + Phenformin; first compound 0.6325 µM),relative viability (Entinostat + Phenformin; first compound 2 µM),relative viability (SGI-1776 + AZD7762; first compound 0.08 µM),relative viability (SGI-1776 + AZD7762; first compound 0.8 µM),relative viability (SGI-1776 + AZD7762; first compound 2.53 µM),relative viability (SGI-1776 + AZD7762; first compound 8 µM)
NCI-H1623,0.459,0.434,0.447,0.414,0.405,0.445,0.565,0.429,0.298,0.339,0.663,0.623,0.556,0.489,0.422,–,–,–,–
NCI-H322M,0.526,0.523,0.544,0.49,0.416,0.608,0.54,0.558,0.483,0.371,0.799,0.963,0.99,0.809,0.664,0.631,0.568,0.524,0.646
NCI-H2405,0.578,0.668,0.618,0.599,0.585,0.574,0.652,0.582,0.567,0.414,0.392,0.462,0.414,0.352,0.358,0.706,0.728,0.57,0.608
HCC-44,0.458,0.567,0.39,0.391,0.419,0.53,0.518,0.333,0.182,0.176,0.204,0.197,0.129,0.11,0.0548,1.07,0.969,1,0.95
HCC-78,0.409,0.389,0.369,0.407,0.329,0.402,0.33,0.351,0.344,0.261,0.819,0.751,0.55,0.329,0.27,0.665,0.726,0.579,0.538
COR-L23,0.937,0.733,0.739,0.704,0.432,0.67,0.599,0.621,0.291,0.264,0.433,0.429,0.389,0.245,0.144,–,–,–,–
NCI-H2009,0.577,0.628,0.533,0.441,0.386,0.59,0.691,0.628,0.636,0.451,0.466,0.499,0.468,0.418,0.304,–,–,–,–
NCI-H3122,0.998,1.01,0.835,0.977,0.347,1.01,1.08,0.998,0.823,0.191,0.411,0.395,0.389,0.321,0.22,0.941,0.935,0.938,1
NCI-H2228,0.51,0.606,0.519,0.485,0.251,0.695,0.595,0.416,0.266,0.208,0.285,0.334,0.395,0.22,0.207,–,–,–,–
NCI-H1944,0.401,0.439,0.366,0.345,0.272,0.382,0.404,0.362,0.233,0.208,0.193,0.182,0.168,0.13,0.142,0.619,0.595,0.518,0.441
SK-LU-1,0.38,0.36,0.348,0.329,0.266,0.357,0.448,0.35,0.261,0.231,0.579,0.693,0.497,0.398,0.362,–,–,–,–
NCI-H1563,0.824,0.766,0.719,0.659,0.706,0.723,0.687,0.707,0.653,0.547,0.76,0.646,0.714,0.669,0.607,–,–,–,–
NCI-H1650,0.657,0.617,0.434,0.548,0.397,0.73,0.585,0.589,0.349,0.184,0.54,0.498,0.49,0.419,0.256,–,–,–,–
NCI-H520,0.263,0.257,0.233,0.263,0.211,0.335,0.277,0.274,0.385,0.407,0.497,0.723,0.701,0.615,0.49,–,–,–,–
NCI-H661,0.709,0.7,0.659,0.619,0.539,0.688,0.757,0.724,0.54,0.629,0.281,0.266,0.303,0.269,0.192,–,–,–,–
SK-MES-1,0.572,0.664,0.589,0.426,0.337,0.584,0.66,0.792,0.595,0.532,0.614,0.699,0.721,0.657,0.504,–,–,–,–
